Experimental data: patent publication US20090238808A1, “Process for the identification of novel enzyme interacting compounds” (priority 2005, published 2009)

Columns and labels:
Assay in all cases: In-lysate competition binding with kinobeads, Jurkat lysate, iTRAQ MS, relative intensity of identified proteins (Table 22)
Settings in all cases: DMSO control = 1.0
[1] = molecular target: T1, proteins captured on kinobeads from Jurkat cell lysate (Homo sapiens, UniProt O14976)
T1 construct: endogenous in cells; host or cells: Jurkat clone E6-1 lysate
Experimental: (§1) This example illustrates competition binding in cell lysates (see particularly the third aspect of the invention). A test compound, Bisindolylmaleimide VIII (Bis VIII, a well known kinase inhibitor; Davies et al., 2000. Specificity and mechanism of action of some commonly used protein kinase inhibitors. Biochemical Journal 351 (Pt 1): 95-105) was added to a cell lysate thereby allowing the test compound to bind to the target proteins in the lysate. Then the lysate was contacted with the kinobeads affinity matrix to capture remaining free target proteins. The proteins bound to the kinobeads matrix were then eluted with detergent-containing buffer, separated on a SDS-polyacryamide gel and analyzed by immunodetection (Western blots) or mass spectrometry detection.
(§2) For the quantitative detection of proteins by mass spectrometry proteins were eluted from the affinity matrix and subsequently separated by SDS-Polyacrylamide gel elecrophoresis. Suitable gel areas were cut out and subjected to in-gel proteolytic digestion with trypsin.
(§3) Four tryptic digest samples (corresponding to three different Bis VIII concentrations in the lysate and one DMSO control) were labeled with ITRAQ reagents and the combined samples were analyzed in a single LC-MS/MS mass spectrometry analysis followed by peak quantification in the MS/MS spectrum (Ross et al., 2004. Multiplexed protein quantitation in Saccharomyces cerevisiae using amine-reactive isobaric tagging reagents. Mol. Cell. Proteomics 3(12): 1154-1169). […] Binding curves for individual kinases are shown (FIG. 5). The relative intensity 50 (RI50) values representing the affinity of kinase-compound pairs are similar to IC50 values reported by kinase enzyme assays (Davies et al., 2000. Specificity and mechanism of action of some commonly used protein kinase inhibitors. Biochemical Journal 351 (Pt 1): 95-105).
(§4) Aliqots of Jurkat lysate (10 mg protein) were incubated with different Bis VIII concentrations for one hour at 4° C. (0.025 μM, 0.074 μM, 0.22 μM, 0.67 μM, 2.0 μM and 6.0 μM final concentration of Bis VIII). To this end Bis VIII solutions were prepared in 100% DMSO as solvent that corresponded to 200 fold desired final Bis VIII concentration (Bis VIII from Alexis Biochemicals cat. number ALX 270-056). Five μl of these solutions were added to 1 ml of lysate resulting in the indicated final concentrations. For a control experiment 5 μl of DMSO without Bis VIII were used.
(§5) To each preincubated lysate sample 40 μl of kinobeads (see example 1) were added and incubated for one hour at 4° C. During the incubation the tubes were rotated on an end-over-end shaker (Roto Shake Genie, Scientific Industries Inc.). Beads were collected by centrifugation, transfered to Mobicol-columns (MoBiTech 10055) and washed with 10 ml 1×DP buffer containing 0.4% NP40 detergent, followed by a wash with 5 ml 1×DP buffer with 0.2% NP40. To elute the bound proteins, 100 μl 2×SDS sample buffer was added, the column was heated for 30 minutes at 50° C. and the eluate was transferred to a microfuge tube by centrifugation. Proteins were then separated by SDS-Polyacrylamide electrophoresis (SDS-PAGE). The composition and preparation of buffers is described in example 2.
(§6) The peptide extracts of samples treated with different concentrations of the test compound (0.074 μM, 0.22 μM and 0.67 μM Bis VIII) and the solvent control (0.5% DMSO) were treated with different isomers of the isobaric tagging reagent (iTRAQ Reagents Multiplex Kit, part number 4352135, Applied Biosystems, Foster City, Calif., USA). The iTRAQ reagents are a set of multiplexed, amine-specific, stable isotope reagents that can label all peptides in up to four different biological samples enabling simultaneous identification and quantitation of peptides. The iTRAQ reagents were used according to instructions provided by the manufacturer. […]

[2] = molecular target: T2, proteins captured on kinobeads from Jurkat cell lysate (Homo sapiens, UniProt P06239)
T2 construct: endogenous in cells; host or cells: Jurkat clone E6-1 lysate
Experimental: as §1, §2, §3, §4, §5, §6

[3] = molecular target: T3, proteins captured on kinobeads from Jurkat cell lysate (Homo sapiens, UniProt P07947)
T3 construct: endogenous in cells; host or cells: Jurkat clone E6-1 lysate
Experimental: as §1, §2, §3, §4, §5, §6

[4] = molecular target: T4, proteins captured on kinobeads from Jurkat cell lysate (Homo sapiens, UniProt P15559)
T4 construct: endogenous in cells; host or cells: Jurkat clone E6-1 lysate
Experimental: as §1, §2, §3, §4, §5, §6

[5] = molecular target: T5, proteins captured on kinobeads from Jurkat cell lysate (Homo sapiens, UniProt P30291)
T5 construct: endogenous in cells; host or cells: Jurkat clone E6-1 lysate
Experimental: as §1, §2, §3, §4, §5, §6

[6] = molecular target: T6, proteins captured on kinobeads from Jurkat cell lysate (Homo sapiens, UniProt P45983)
T6 construct: endogenous in cells; host or cells: Jurkat clone E6-1 lysate
Experimental: as §1, §2, §3, §4, §5, §6

[7] = molecular target: T7, proteins captured on kinobeads from Jurkat cell lysate (Homo sapiens, UniProt P45984)
T7 construct: endogenous in cells; host or cells: Jurkat clone E6-1 lysate
Experimental: as §1, §2, §3, §4, §5, §6

[8] = molecular target: T8, proteins captured on kinobeads from Jurkat cell lysate (Homo sapiens, UniProt P48729)
T8 construct: endogenous in cells; host or cells: Jurkat clone E6-1 lysate
Experimental: as §1, §2, §3, §4, §5, §6

[9] = molecular target: T9, proteins captured on kinobeads from Jurkat cell lysate (Homo sapiens, UniProt P51451)
T9 construct: endogenous in cells; host or cells: Jurkat clone E6-1 lysate
Experimental: as §1, §2, §3, §4, §5, §6

[10] = molecular target: T10, proteins captured on kinobeads from Jurkat cell lysate (Homo sapiens, UniProt Q13557)
T10 construct: endogenous in cells; host or cells: Jurkat clone E6-1 lysate
Experimental: as §1, §2, §3, §4, §5, §6

[11] = molecular target: T11, proteins captured on kinobeads from Jurkat cell lysate (Homo sapiens, UniProt Q14289)
T11 construct: endogenous in cells; host or cells: Jurkat clone E6-1 lysate
Experimental: as §1, §2, §3, §4, §5, §6

[12] = molecular target: T12, proteins captured on kinobeads from Jurkat cell lysate (Homo sapiens, UniProt Q6PHR2)
T12 construct: endogenous in cells; host or cells: Jurkat clone E6-1 lysate
Experimental: as §1, §2, §3, §4, §5, §6

[13] = molecular target: T13, proteins captured on kinobeads from Jurkat cell lysate (Homo sapiens, UniProt Q96GD4)
T13 construct: endogenous in cells; host or cells: Jurkat clone E6-1 lysate
Experimental: as §1, §2, §3, §4, §5, §6

[14] = molecular target: T14, proteins captured on kinobeads from Jurkat cell lysate (Homo sapiens, UniProt Q9HCP0)
T14 construct: endogenous in cells; host or cells: Jurkat clone E6-1 lysate
Experimental: as §1, §2, §3, §4, §5, §6

[15] = tested on: proteins captured on kinobeads from Jurkat cell lysate; design: species or system human
Experimental: as §1, §2, §3, §4, §5, §6

SMILES: Cn1cc(C2=C(c3cn(CCCN)c4ccccc34)C(=O)NC2=O)c2ccccc21 [Bis VIII, Bisindolylmaleimide VIII]
- Relative Intensity, GAK ([1]; 0.074 uM in lysate): 0.92
- Relative Intensity, GAK ([1]; 0.67 uM in lysate): 0.97
- Relative Intensity, LCK ([2]; 0.074 uM in lysate): 0.87
- Relative Intensity, LCK ([2]; 0.67 uM in lysate): 0.94
- Relative Intensity, YES (YES1) ([3]; 0.074 uM in lysate): 0.82
- Relative Intensity, YES (YES1) ([3]; 0.67 uM in lysate): 0.87
- Relative Intensity, NQO1 ([4]; 0.074 uM in lysate): 0.84
- Relative Intensity, NQO1 ([4]; 0.67 uM in lysate): 0.87
- Relative Intensity, Wee1 ([5]; 0.074 uM in lysate): 1.21
- Relative Intensity, Wee1 ([5]; 0.67 uM in lysate): 1.14
- Relative Intensity, JNK1 (MAPK8) ([6]; 0.074 uM in lysate): 0.91
- Relative Intensity, JNK1 (MAPK8) ([6]; 0.67 uM in lysate): 0.83
- Relative Intensity, JNK2 (MAPK9) ([7]; 0.074 uM in lysate): 0.97
- Relative Intensity, JNK2 (MAPK9) ([7]; 0.67 uM in lysate): 1.04
- Relative Intensity, CK1a (CSNK1A1) ([8]; 0.074 uM in lysate): 0.97
- Relative Intensity, CK1a (CSNK1A1) ([8]; 0.67 uM in lysate): 1.02
- Relative Intensity, BLK ([9]; 0.074 uM in lysate): 0.90
- Relative Intensity, BLK ([9]; 0.67 uM in lysate): 0.83
- Relative Intensity, CaMK2d ([10]; 0.074 uM in lysate): 0.91
- Relative Intensity, CaMK2d ([10]; 0.67 uM in lysate): 0.88
- Relative Intensity, PYK2 (PTK2B) ([11]; 0.074 uM in lysate): 0.82
- Relative Intensity, PYK2 (PTK2B) ([11]; 0.67 uM in lysate): 0.74
- Relative Intensity, ULK3 ([12]; 0.074 uM in lysate): 0.95
- Relative Intensity, ULK3 ([12]; 0.67 uM in lysate): 1.15
- Relative Intensity, AurB (AURKB) ([13]; 0.074 uM in lysate): 0.95
- Relative Intensity, AurB (AURKB) ([13]; 0.67 uM in lysate): 0.97
- Relative Intensity, CK1g1 (CSNK1G1) ([14]; 0.074 uM in lysate): 1.01
- Relative Intensity, CK1g1 (CSNK1G1) ([14]; 0.67 uM in lysate): 0.96
- Relative Intensity, Abl1 ([15]; 0.074 uM in lysate): 0.81
- Relative Intensity, Abl1 ([15]; 0.67 uM in lysate): 1.03
